pIC50: −log10 of the molar value. Where a SMILES comes first, the peptide text is derived from it. Bridges are numbered along the chain shown (N, C = ends). [ ]: non-standard residue; d: D form. The star is where a group is joined. ξ: configuration not given here. Phe(4-COOH) = N[C@@H](Cc1ccc(C(=O)O)cc1)C(=O)O; Bip = N[C@@H](Cc1ccc(-c2ccccc2)cc1)C(=O)O; Phe(3-Me) = Cc1cccc(C[C@H](N)C(=O)O)c1; Val(3-OH) = CC(C)(O)[C@H](N)C(=O)O; Benzoyl(4-F) = O=C(c1ccc(F)cc1)*; 4Pal = N[C@@H](Cc1ccncc1)C(=O)O; Cha = N[C@@H](CC1CCCCC1)C(=O)O; Cit = NC(=O)NCCC[C@H](N)C(=O)O; dCha = N[C@H](CC1CCCCC1)C(=O)O; Thr(3ξ) = CC(O)[C@H](N)C(=O)O; Carboxymethyl = O=C(O)C*; Nle = CCCC[C@H](N)C(=O)O; Orn = NCCC[C@H](N)C(=O)O; Dab = NCC[C@H](N)C(=O)O; Dap = NC[C@H](N)C(=O)O; CF3 = FC(F)(F)*
Target: T1, human PD-1 / PD-L1-Ig binding on Jurkat cell line over-expressing human PD-1 (Jurkat-PD-1) (Homo sapiens, UniProt Q15116)
T1 construct: expressed in transfected cells; host or cells: Jurkat
Test: Jurkat-PD-1 Cell Binding High-Content Screening Assay (CBA)
Format: cell-based
Conditions: Jurkat-PD-1 cells, PE-labeled PD-L1-Ig 20 nM final; read-out: Jurkat HPD1_PDL1 IC50
Summary of the method: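 Binding of fluorescent PD-L1-Ig (phycoerythrin linked via the Ig tag, 20 nM final) to PD-1-overexpressing Jurkat cells was imaged after a 2 h, 37° C compound pretreatment and 1 hour ligand incubation.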

T1 sequence (Q15116 25-288): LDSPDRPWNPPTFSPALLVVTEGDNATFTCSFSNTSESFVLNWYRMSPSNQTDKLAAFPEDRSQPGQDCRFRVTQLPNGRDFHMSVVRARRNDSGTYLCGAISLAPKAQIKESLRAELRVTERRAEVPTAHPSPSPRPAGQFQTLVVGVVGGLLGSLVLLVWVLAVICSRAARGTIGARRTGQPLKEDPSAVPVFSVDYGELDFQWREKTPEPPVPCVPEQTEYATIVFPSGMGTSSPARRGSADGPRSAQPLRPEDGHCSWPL

Row | SMILES | pIC50
1 | Cc1cccc(C[C@@H]2NC(=O)[C@H](CC(=O)O)NC(=O)[C@H](Cc3ccc(C(=O)O)cc3)NC(=O)[C@H](Cc3ccncc3)NC(=O)CSC[C@@H](C(N)=O)NC(=O)[C@H]([C@@H](C)O)NC(=O)[C@H](C(C)C)NC(=O)[C@H](CC3CCCCC3)NC(=O)[C@H](CCN)NC(=O)[C@@H](CC(C)C)NC(=O)[C@H](CCCN)NC(=O)[C@H](CCC(=O)O)NC(=O)[C@H](Cc3ccc(-c4ccccc4)cc3)NC(=O)[C@H](C(C)C)NC2=O)c1 [Compound 1552] ({CH2CO}-[4Pal][Phe(4-COOH)]D[Phe(3-Me)]V[Bip]E[Orn][dL][Dab][Cha]VTC-NH2; thioether N-14) | 7.66
2 | CC(C)C[C@H]1NC(=O)[C@H](CCCN)NC(=O)[C@H](CCC(=O)O)NC(=O)[C@H](Cc2ccc(-c3ccccc3)cc2)NC(=O)[C@H](C(C)C)NC(=O)[C@H](Cc2cccc(Cl)c2)NC(=O)[C@H](CC(=O)O)NC(=O)[C@H](Cc2ccc(OCC(=O)O)cc2)NC(=O)[C@H](Cc2ccncc2)NC(=O)CSC[C@@H](C(=O)N[C@@H](C)C(N)=O)NC(=O)[C@H]([C@@H](C)O)NC(=O)[C@H](C(C)C)NC(=O)[C@H](CC2CCCCC2)NC(=O)[C@H](CCN)NC1=O [Compound 1491] | 7.65
3 | Cc1cccc(C[C@@H]2NC(=O)[C@H](CC(=O)O)NC(=O)[C@H](Cc3ccc(C(=O)O)cc3)NC(=O)[C@H](Cc3ccncc3)NC(=O)CSC[C@@H](C(=O)N[C@@H](CCN)C(N)=O)NC(=O)[C@H]([C@@H](C)O)NC(=O)[C@H](C(C)C)NC(=O)[C@H](CC3CCCCC3)NC(=O)[C@H](CCN)NC(=O)[C@@H](CC(C)C)NC(=O)[C@H](CCCN)NC(=O)[C@H](Cc3ccc(OCC(=O)O)cc3)NC(=O)[C@H](Cc3ccc(-c4ccccc4)cc3)NC(=O)[C@H](Cc3ccc(OCC(=O)O)cc3)NC2=O)c1 [Compound 2306] ({CH2CO}-[4Pal][Phe(4-COOH)]D[Phe(3-Me)]Y(Carboxymethyl)[Bip]Y(Carboxymethyl)[Orn][dL][Dab][Cha]VTC[Dab]-NH2; thioether N-14) | 8.15
4 | CCCC[C@H]1NC(=O)[C@H](CCCN)NC(=O)[C@H]([C@@H](C)CC)NC(=O)[C@H](Cc2ccc(-c3ccccc3)cc2)NC(=O)[C@H](C(C)C)NC(=O)[C@H](Cc2c[nH]c3ccccc23)NC(=O)[C@H](CC(=O)O)NC(=O)[C@H](Cc2ccc(OCC(=O)O)cc2)NC(=O)[C@H](CN)NC(=O)CSC[C@@H](C(=O)N[C@@H](C)C(N)=O)NC(=O)[C@H]([C@@H](C)O)NC(=O)[C@H](C(C)C)NC(=O)[C@H](CC2CCCCC2)NC(=O)[C@H](CCN)NC1=O [Compound 1708] | 7.64
5 | Cc1cccc(C[C@@H]2NC(=O)[C@H](CC(=O)O)NC(=O)[C@H](Cc3ccc(OCC(=O)O)cc3)NC(=O)[C@H](CCCNC(=N)N)NC(=O)CSC[C@@H](C(N)=O)NC(=O)[C@H]([C@@H](C)O)NC(=O)[C@H](C(C)C)NC(=O)[C@H](CC3CCCCC3)NC(=O)[C@H](CCN)NC(=O)[C@@H](CC(C)C)NC(=O)[C@H](CCCN)NC(=O)[C@H](CCCNC(=O)c3ccc(F)cc3)NC(=O)[C@H](Cc3ccc(-c4ccccc4)cc3)NC(=O)[C@H](Cc3ccc(O)cc3)NC2=O)c1 [Compound 2052] ({CH2CO}-RY(Carboxymethyl)D[Phe(3-Me)]Y[Bip][Orn](Benzoyl(4-F))[Orn][dL][Dab][Cha]VTC-NH2; thioether N-14) | 6.84
6 | Cc1cccc(C[C@@H]2NC(=O)[C@H](CC(=O)O)NC(=O)[C@H](Cc3ccc(OCC(=O)O)cc3)NC(=O)[C@H](CNC(=O)c3ccc(F)cc3)NC(=O)CSC[C@@H](C(N)=O)NC(=O)[C@H]([C@@H](C)O)NC(=O)[C@H](C(C)C)NC(=O)[C@H](CC3CCCCC3)NC(=O)[C@H](CCN)NC(=O)[C@@H](CC(C)C)NC(=O)[C@H](CCCN)NC(=O)[C@H](Cc3ccc(OCC(=O)O)cc3)NC(=O)[C@H](Cc3ccc(-c4ccccc4)cc3)NC(=O)[C@H](Cc3ccc(O)cc3)NC2=O)c1 [Compound 2048] ({CH2CO}-[Dap](Benzoyl(4-F))Y(Carboxymethyl)D[Phe(3-Me)]Y[Bip]Y(Carboxymethyl)[Orn][dL][Dab][Cha]VTC-NH2; thioether N-14) | 7.40
7 | CC(C)C[C@@H]1NC(=O)[C@H](Cc2c[nH]c3ccccc23)NC(=O)[C@H](CC(=O)O)NC(=O)[C@H](Cc2ccc(C(=O)O)cc2)NC(=O)[C@H](Cc2ccc(OCC(=O)O)cc2)NC(=O)CSC[C@@H](C(=O)NCC(N)=O)NC(=O)[C@H](CO)NC(=O)[C@H](C(C)C)NC(=O)[C@H](CC(C)C)NC(=O)[C@H](CC(N)=O)NC(=O)[C@@H](CC(C)C)NC(=O)[C@H](CCN)NC(=O)[C@H](C(C)C)NC(=O)[C@H](Cc2ccc(-c3ccccc3)cc2)NC1=O [Compound 1279] ({CH2CO}-Y(Carboxymethyl)[Phe(4-COOH)]DWL[Bip]V[Dab][dL]NLVSCG-NH2; thioether N-14) | 7.87
8 | CCCC[C@@H]1NC(=O)[C@H](CC(N)=O)NC(=O)[C@@H](CC(C)C)NC(=O)[C@H](CN)NC(=O)[C@H](C(C)C)NC(=O)[C@H](Cc2ccc(-c3ccccc3)cc2)NC(=O)[C@H](CC(C)C)NC(=O)[C@H](Cc2c[nH]c3ccccc23)NC(=O)[C@H](CC(=O)O)NC(=O)[C@H](Cc2ccncc2)NC(=O)[C@H](CN)NC(=O)CSC[C@@H](C(=O)NCC(N)=O)NC(=O)[C@H](CO)NC(=O)[C@H](C(C)C)NC1=O [Compound 1400] ({CH2CO}-[Dap][4Pal]DWL[Bip]V[Dap][dL]N[Nle]VSCG-NH2; thioether N-14) | 7.54
9 | Cc1cccc(C[C@@H]2NC(=O)[C@H](CC(=O)O)NC(=O)[C@H](Cc3ccc(OC(F)(F)F)cc3)NC(=O)[C@H](CCN)NC(=O)CSC[C@@H](C(=O)N[C@@H](CCN)C(N)=O)NC(=O)[C@H](CCC(=O)O)NC(=O)[C@H](C(C)(C)O)NC(=O)[C@H](CC3CCCCC3)NC(=O)[C@H](CCN)NC(=O)[C@@H](CC(C)C)NC(=O)[C@H](CCCN)NC(=O)[C@H](Cc3ccc(OCC(=O)O)cc3)NC(=O)[C@H](Cc3ccc(-c4ccccc4)cc3)NC(=O)[C@H](Cc3ccc(OCC(=O)O)cc3)NC2=O)c1 [Compound 2693] ({CH2CO}-[Dab]Y(CF3)D[Phe(3-Me)]Y(Carboxymethyl)[Bip]Y(Carboxymethyl)[Orn][dL][Dab][Cha][Val(3-OH)]EC[Dab]-NH2; thioether N-14) | 7.37
10 | CC(C)[C@@H]1NC(=O)[C@H](Cc2c[nH]c3ccccc23)NC(=O)[C@H](CC(=O)O)NC(=O)[C@H](Cc2ccncc2)NC(=O)[C@H](CN)NC(=O)CSC[C@@H](C(=O)N[C@@H](C)C(N)=O)NC(=O)[C@H]([C@@H](C)O)NC(=O)[C@H](C(C)C)NC(=O)[C@H](CC2CCCCC2)NC(=O)[C@H](CCN)NC(=O)[C@@H](CC2CCCCC2)NC(=O)[C@H](CCCN)NC(=O)[C@H](CCCNC(N)=O)NC(=O)[C@H](Cc2ccc(-c3ccccc3)cc2)NC1=O [Compound 1646] ({CH2CO}-[Dap][4Pal]DWV[Bip][Cit][Orn][dCha][Dab][Cha]VTCA-NH2; thioether N-14) | 7.55

Continued, values first:

Row | pIC50 | SMILES
11 | 7.90 | CC(C)C[C@H]1NC(=O)[C@H](CCCN)NC(=O)[C@H](C(C)C)NC(=O)[C@H](Cc2ccc(-c3ccccc3)cc2)NC(=O)[C@H](C(C)C)NC(=O)[C@H](Cc2c[nH]c3ccccc23)NC(=O)[C@H](CC(=O)O)NC(=O)[C@H](Cc2ccc(O)cc2)NC(=O)[C@H](C(C)O)NC(=O)CSC[C@@H](C(=O)N[C@@H](CC(N)=O)C(N)=O)NC(=O)[C@H](C(C)O)NC(=O)[C@H](C(C)C)NC(=O)[C@H](CC2CCCCC2)NC(=O)[C@H](CCN)NC1=O (stereo partly drawn) [Compound 2549] ({CH2CO}-[Thr(3ξ)]YDWV[Bip]V[Orn][dL][Dab][Cha]V[Thr(3ξ)]CN-NH2; thioether N-14)
12 | 7.62 | CC(C)C[C@@H]1NC(=O)[C@H](CCN)NC(=O)[C@@H](CC(C)C)NC(=O)[C@H](CCCN)NC(=O)[C@H](C(C)C)NC(=O)[C@H](Cc2ccc(-c3ccccc3)cc2)NC(=O)[C@H](C(C)C)NC(=O)[C@H](Cc2c[nH]c3ccccc23)NC(=O)[C@H](CC(=O)O)NC(=O)[C@H](Cc2ccc(O)cc2)NC(=O)[C@H](CC(N)=O)NC(=O)CSC[C@@H](C(=O)N[C@@H](C)C(N)=O)NC(=O)[C@H]([C@@H](C)O)NC(=O)[C@H](C(C)C)NC1=O [Compound 1015] ({CH2CO}-NYDWV[Bip]V[Orn][dL][Dab]LVTCA-NH2; thioether N-14)
13 | 8.09 | CC[C@H](C)[C@@H]1NC(=O)[C@H](Cc2ccc(-c3ccccc3)cc2)NC(=O)[C@H](C(C)C)NC(=O)[C@H](Cc2c[nH]c3ccccc23)NC(=O)[C@H](CC(=O)O)NC(=O)[C@H](Cc2ccc(O)cc2)NC(=O)[C@H](CN)NC(=O)CSC[C@@H](C(=O)N[C@@H](C)C(N)=O)NC(=O)[C@H]([C@@H](C)O)NC(=O)[C@H](C(C)C)NC(=O)[C@H](CC2CCCCC2)NC(=O)[C@H](CCN)NC(=O)[C@@H](CC(C)C)NC(=O)[C@H](CCCN)NC1=O [Compound 1159]
14 | 7.72 | CC[C@H](C)[C@@H]1NC(=O)[C@H](Cc2ccc(-c3ccccc3)cc2)NC(=O)[C@H](C(C)C)NC(=O)[C@H](Cc2c[nH]c3ccccc23)NC(=O)[C@H](CC(=O)O)NC(=O)[C@H](Cc2ccc(O)cc2)NC(=O)[C@H](Cc2ccccc2)NC(=O)CSC[C@@H](C(=O)N[C@@H](C)C(N)=O)NC(=O)[C@H]([C@@H](C)O)NC(=O)[C@H](C(C)C)NC(=O)[C@H](CC(C)C)NC(=O)[C@H](CCCNC(=N)N)NC(=O)[C@@H](CC(C)C)NC(=O)[C@H](CCCN)NC1=O [Compound 1144] ({CH2CO}-FYDWV[Bip]I[Orn][dL]RLVTCA-NH2; thioether N-14)
15 | 7.83 | Cc1cccc(C[C@@H]2NC(=O)[C@H](CC(=O)O)NC(=O)[C@H](Cc3ccncc3)NC(=O)[C@H](Cc3ccc(OCC(=O)O)cc3)NC(=O)CSC[C@@H](C(=O)N[C@@H](C)C(N)=O)NC(=O)[C@H]([C@@H](C)O)NC(=O)[C@H](C(C)C)NC(=O)[C@H](CC(C)C)NC(=O)[C@H](CCN)NC(=O)[C@@H](CC(C)C)NC(=O)[C@H](CCCN)NC(=O)[C@H](C(C)C)NC(=O)[C@H](Cc3ccc(-c4ccccc4)cc3)NC(=O)[C@H](C(C)C)NC2=O)c1 [Compound 1222] ({CH2CO}-Y(Carboxymethyl)[4Pal]D[Phe(3-Me)]V[Bip]V[Orn][dL][Dab]LVTCA-NH2; thioether N-14)
